Data: patent US9649295B2, “Chemical inhibitors of soluble adenylyl cyclase (sAC)” (Cornell Research Foundation, Inc., priority 2004, dated 2017)

What was measured:
primary mouse islets = assay: insulin release from isolated mouse islets; format: cell-based; settings: 16.7 mM glucose, 30 minutes, 30 μM KH7
Procedure: After several washes with Hank's Balanced Salt Solution, islets were hand-picked and 15-20 islets were distributed into each well of a 12 well plate to adhere overnight in RPMI-1640 media supplemented with 10 mM HEPES, 5.6 mM glucose, 10% FBS, 2 mM L-glutamine, 1 mM sodium pyruvate, and antibiotics.
Insulin release from isolated islets was performed in 12 well plates. Islets were preincubated in KRB (2.8 mM glucose) for 1 hour followed by incubation for 30 minutes in 2.8 mM glucose KRB in the presence of drug. The same wells were then incubated for an additional 30 minutes in 16.7 mM glucose KRB in the presence of the same drugs. Media was removed, cleared of cells, and insulin was measured.

Plasmodium falciparum = Plasmodium falciparum viability, luciferase assay; format: cell-based; settings: 24 hours
Procedure: . Plasmodium cultures were incubated in the indicated concentrations of KH7 or KH7.15 for 24 hours and viability assessed by luciferase assay (FIG. 16A). […].
Therefore, the effect of sAC inhibitors on P. falciparum viability was tested. […].

INS-1E cells [1] = assay: insulin release in INS-1E cells; format: cell-based; settings: for effect on PMA induced insulin release: PMA 300 nM, 2.5 mM glucose, KH7 30 μM
Procedure: (§1) Briefly, cells (passage 140-150) were plated at 2.5×10^5 cells/well in a 24 well plate and permitted to recover for two days. Cells were glucose starved by incubation for 1 hour in the presence of 2.5 mM glucose KRB medium supplemented with 2 mM sodium bicarbonate, 10 mM Hepes, and 0.1% BSA. After washing, cells were incubated in KRB with either 2.5 mM or 16 mM glucose in the presence of either vehicle control (DMSO or MeOH) or indicated drug. After the indicated time, removed media was cleared of cell debris and secreted insulin was measured by Insulin ELISA kit (Linco Research, St. Charles, Mo., or ALPCO, Windham, N.H.). If cAMP was to be concomitantly measured, cells were pre-treated with IBMX for the final 10 minutes of the glucose starvation and IBMX was included in all subsequent incubations. For the washout experiment, subsequent to initial insulin determination, cells treated with KH7 were placed in fresh KRB (2.5 mM glucose) for an additional hour and insulin release was measured as above in the absence of any added drug. For transferrin recycling, loading of cells with I^125 transferrin was performed during hour incubation in 2.5 mM glucose KRB.

tmACs [2] = assay: cAMP forming activity inside cells stimulated with forskolin; format: cell-based; settings: read-out: in vivo IC50 tmAC (FSK)
[3] = glucose tolerance test in C57BL/6 mice; format: in vivo, mouse
Procedure: C57B1/6 adult male mice were maintained on a 12 hour light/dark cycle, with free access to water and standard laboratory chow (Research Animal Resource Center, Weill Medical College of Cornell University). Animals were treated in accordance with our institutions guidelines. After a 14-16 hour overnight fast with free access to water, blood was removed from the tail vein for glucose (Hemocue B-Glucose Microcuvette and Analyzer; Hemocue, Inc., Lake Forest, Calif.) and insulin (Rat/Mouse Insulin ELISA Kit; Linco Research) measurements. Mice then received an i.p injection of 100 mM KH7 (100 μmoles/kg) or vehicle control. Twenty minutes later, both groups were injected i.p. with 1 g/kg glucose (20% solution). Blood samples were taken from the tail vein at times indicated, and glucose and insulin were quantitated according to manufacturer's instructions.

tmACs [4] = assay: adenylyl cyclase activity in forskolin stimulated INS-1E cell lysate; settings: forskolin (10 μM) stimulated INS-1E
[5] = test system: sAC overexpressing INS-1E cells; assay: insulin secretion in sAC overexpressing INS-1E cells (SF2); format: cell-based; settings: 30 μM KH7, 15 minutes
Description: FIGS. 14A-C illustrate that sAC-generated cAMP, distinct from tmAC-generated cAMP, is sufficient to elicit insulin secretion. […] Shown is a representative assay repeated at least five times; values indicate duplicate determinations with standard deviations. […] Shown is a representative assay repeated at least five times; values indicate duplicate determinations with standard deviations. Insert is a Western blot indicating the levels of sAC protein in INS-1E, SF2, and SF5 cells. […] Values represent mean±SEM (n=3). ANOVA analysis was performed with asterisks indicating statistically significant differences. ***=p<0.001. […]
Briefly, cells (passage 140-150) were plated at 2.5×10^5 cells/well in a 24 well plate and permitted to recover for two days. […] After the indicated time, removed media was cleared of cell debris and secreted insulin was measured by Insulin ELISA kit (Linco Research, St. Charles, Mo., or ALPCO, Windham, N.H.). If cAMP was to be concomitantly measured, cells were pre-treated with IBMX for the final 10 minutes of the glucose starvation and IBMX was included in all subsequent incubations. For the washout experiment, subsequent to initial insulin determination, cells treated with KH7 were placed in fresh KRB (2.5 mM glucose) for an additional hour and insulin release was measured as above in the absence of any added drug. […]

[6] = biological target: T1, Type II tmAC (tmAC in extracts) (Homo sapiens, UniProt Q08462); assay: in vitro cyclase activity in extracts of cells overexpressing Type II tmAC; format: biochemical; settings: cell printing μM
T1 construct: expressed in transfected cells
T1 sequence (Q08462 whole entry): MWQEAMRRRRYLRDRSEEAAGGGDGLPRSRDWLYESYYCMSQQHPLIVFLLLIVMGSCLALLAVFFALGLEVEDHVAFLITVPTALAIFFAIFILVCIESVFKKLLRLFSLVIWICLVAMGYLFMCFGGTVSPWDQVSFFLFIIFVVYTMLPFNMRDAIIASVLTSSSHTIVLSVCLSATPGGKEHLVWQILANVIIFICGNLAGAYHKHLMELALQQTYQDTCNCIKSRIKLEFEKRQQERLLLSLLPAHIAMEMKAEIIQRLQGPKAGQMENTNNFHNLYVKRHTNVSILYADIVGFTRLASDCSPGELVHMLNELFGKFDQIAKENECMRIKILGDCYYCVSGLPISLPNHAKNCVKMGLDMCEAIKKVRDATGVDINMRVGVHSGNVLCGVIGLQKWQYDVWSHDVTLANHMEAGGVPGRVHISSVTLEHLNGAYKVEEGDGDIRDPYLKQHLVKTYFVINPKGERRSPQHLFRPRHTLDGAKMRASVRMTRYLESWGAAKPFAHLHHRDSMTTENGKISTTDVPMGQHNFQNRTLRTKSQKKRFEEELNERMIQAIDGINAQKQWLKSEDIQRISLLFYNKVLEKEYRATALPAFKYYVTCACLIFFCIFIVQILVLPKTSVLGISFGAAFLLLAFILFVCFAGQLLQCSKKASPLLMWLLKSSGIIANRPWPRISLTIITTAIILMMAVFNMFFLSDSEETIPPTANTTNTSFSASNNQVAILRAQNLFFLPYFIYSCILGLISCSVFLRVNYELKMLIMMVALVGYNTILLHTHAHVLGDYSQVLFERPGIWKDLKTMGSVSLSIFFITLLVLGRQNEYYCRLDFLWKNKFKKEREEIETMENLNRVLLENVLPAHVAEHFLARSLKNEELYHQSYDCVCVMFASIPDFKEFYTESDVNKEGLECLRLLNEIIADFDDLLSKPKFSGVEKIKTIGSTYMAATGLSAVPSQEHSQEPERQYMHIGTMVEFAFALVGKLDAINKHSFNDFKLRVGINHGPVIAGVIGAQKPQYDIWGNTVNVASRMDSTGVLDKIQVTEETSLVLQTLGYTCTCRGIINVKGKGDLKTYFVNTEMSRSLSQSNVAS

[7] = test system: CREB phosphorylation in isolated nuclei; assay: CREB phosphorylation in isolated HeLa nuclei (P2), Western analysis; format: biochemical; settings: 40 mM bicarbonate, 50 μM KH7
Procedure: The resuspended pellet and 60% OptiPrep iodixanol were mixed (30% OptiPrep final) and centrifuged at 10,000 g for 20 min. The supernatant was removed and the nuclei-enriched pellet (P2) was resuspended in TM-2 buffer without detergent.
Reactions were stopped by the addition of 20 μl of SDS sample buffer (CREB phosphorylation) or by being placed into a 100° C. heat block for 3 min (adenylyl cyclase).
For whole cell and isolated nuclei CREB phosphorylation assays, equal cell or nuclear equivalents were separated under reducing conditions using a 10% SDS-PAGE, transferred to a PVDF membrane, and probed for CREB (rabbit polyclonal antiserum; Chemicon, Temecula, Calif.) and phosphorylated CREB (rabbit polyclonal antiserum; Upstate Biotechnology, Temecula, Calif.). HRP-conjugated secondary antibodies were used, and bands were visualized using ECL. Image analysis software (model Fluorchem 8800; Alpha Innotech, San Leandro, Calif.) was used to quantitate Western results. Intensities of phospho-CREB bands were normalized to total CREB.

cAMP in INS-1E cells = assay: intracellular cAMP in INS-1E cells; format: cell-based
Procedure: as §1

INS-1E cells [8] = assay: transferrin recycling in INS-1E cells; format: cell-based; settings: 30 minutes, KH7 30 μM
Procedure: as §1

[9] = 16 mM glucose, 30 μM KH7, 30 μM KH7.15, 50 μM 2-hydroxyestradiol, 50 μM 2′5′ddAdo

SMILES: CC(Sc1nc2ccccc2[nH]1)C(=O)N/N=C/c1cc(Br)ccc1O (stereo not shown) [KH7]
- effect on insulin release induced by high glucose in islets (primary mouse islets): inhibited insulin release induced by high glucose
- effect on infectious growth in red blood cells (Plasmodium falciparum): rapidly (in a single generation) and potently affected
- rescue of KH7 inhibition of GSIS by cAMP analog (INS-1E cells [1]; 50 μM KH7, 1 mM 8-Br-SpcAMP): rescued by addition of a membrane-permeable cAMP analog
- effect on glucose-stimulated insulin secretion (GSIS) (INS-1E cells [1]; [9]): blocked all insulin release induced by high glucose
- cellular toxicity (INS-1E cells [1]; INS-1E cells): not due to cellular toxicity
- IC50 (INS-1E cells [1]; INS-1E, 0.5 h, 16 mM glucose, 30 minutes, read-out: IC50 for inhibition of glucose-stimulated insulin secretion (GSIS)): ~5 µM
- effect on PMA induced insulin release (INS-1E cells [1]; 30 minutes): unaffected
- effect on PMA induced insulin release (INS-1E cells [1]; 30 minutes, listed as K17): does not affect
- insulin release over time after addition of high glucose (INS-1E cells [1]; in the presence of KH7): no significant insulin release was observed up to 45 minutes
- GSIS after drug washout (INS-1E cells [1]; sixty minutes following removal of drug): normal GSIS was restored
- IC50 (tmACs [2]): > 500 µM
- glucose-induced serum insulin release ([3]; 100 μmoles/kg KH7 i.p., 1 g/kg glucose i.p.): no statistically significant glucose-induced insulin release was detected
- glucose tolerance ([3]; 100 μmoles/kg [49 mg/kg] KH7 i.p., 1 g/kg glucose i.p.): glucose intolerant
- glucose tolerance test one week after injection ([3]; one week after KH7, no further drug, n=2): normal glucose tolerance and insulin response
- effect on tmACs (tmACs [4]): inert towards tmACs
- effect on sAC overexpression-induced increase in insulin release [5]: inhibited
- IC50 [6]: > 100 µM
- effect on bicarbonate-induced CREB phosphorylation [7]: effective in preventing bicarbonate-induced CREB phosphorylation
- IC50 for blocking glucose-induced cAMP, compared with sAC inhibition (cAMP in INS-1E cells): matched its dose response of sAC inhibition
- effect on cAMP induced by high glucose (cAMP in INS-1E cells; [9]): blocked the cAMP induced by the presence of high glucose
- effect on transferrin recycling (INS-1E cells [8]): unaffected
- effect on transferrin recycling (INS-1E cells [8]; listed as K17): does not affect
